Measurements from patent US12077503B2, “Substituted cyclic amides and their use as herbicides” (FMC CORPORATION, priority 2015, dated 2024).

Assays:
Type in all cases: in vivo
[1] = tested on: Kochia (Kochia scoparia); test: Test A preemergence; conditions: Bassia scoparia, pre-emergence, 240 h, 0 to 100 scale where 0 is no effect and 100 is complete control, read-out: Kochia plant response rating
In short: (§1)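 In a loam soil and sand blend, planted seeds got a preemergence directed soil spray, and young plants at the one- to two-leaf stage, 2–10 cm high, got a postemergence application; ~10 d greenhouse hold; injury rated visually, 0 = none, 100 = complete control.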

[2] = tested on: barnyardgrass (Echinochloa crus-galli); test: Test A preemergence; conditions: Echinochloa crus-galli, pre-emergence, 240 h, 0 to 100 scale where 0 is no effect and 100 is complete control, read-out: Barnyardgrass plant response rating
In short: as §1

[3] = tested on: giant foxtail (Setaria faberii); test: Test A preemergence; conditions: Setaria faberi, pre-emergence, 240 h, 0 to 100 scale where 0 is no effect and 100 is complete control, read-out: Foxtail, Giant plant response rating
In short: as §1

[4] = tested on: pigweed (Amaranthus retroflexus); test: Test A preemergence; conditions: Amaranthus retroflexus, pre-emergence, 240 h, 0 to 100 scale where 0 is no effect and 100 is complete control, read-out: Pigweed plant response rating
[5] = tested on: ragweed (common ragweed, Ambrosia elatior); test: Test A preemergence; conditions: Ambrosia artemisiifolia, pre-emergence, 240 h, 0 to 100 scale where 0 is no effect and 100 is complete control, read-out: Ragweed plant response rating
In short: as §1

[6] = tested on: ryegrass, Italian (Italian ryegrass, Lolium multiflorum); test: Test A preemergence; conditions: Lolium multiflorum, pre-emergence, 240 h, 0 to 100 scale where 0 is no effect and 100 is complete control, read-out: Ryegrass, Italian plant response rating
In short: as §1

[7] = tested on: Galium (catchweed bedstraw, Galium aparine); test: Test A postemergence; conditions: Galium, post-emergence, 240 h, read-out: Galium plant response rating (0 to 100 scale)
In short: as §1

[8] = tested on: Kochia (Kochia scoparia); test: Test A postemergence; conditions: Bassia scoparia, post-emergence, 240 h, read-out: Kochia plant response rating (0 to 100 scale)
In short: as §1

[9] = tested on: barnyardgrass (Echinochloa crus-galli); test: Test A postemergence; conditions: Echinochloa crus-galli, post-emergence, 240 h, read-out: Barnyardgrass plant response rating (0 to 100 scale)
In short: as §1

[10] = tested on: blackgrass (Alopecurus myosuroides); test: Test A postemergence; conditions: Alopecurus myosuroides, post-emergence, 240 h, read-out: Blackgrass plant response rating (0 to 100 scale)
In short: as §1

[11] = tested on: corn (Zea mays); test: Test A postemergence; conditions: Zea mays, post-emergence, 240 h, read-out: Corn plant response rating (0 to 100 scale)
In short: as §1

[12] = tested on: giant foxtail (Setaria faberii); test: Test A postemergence; conditions: Setaria faberi, post-emergence, 240 h, read-out: Foxtail, Giant plant response rating (0 to 100 scale)
In short: as §1

[13] = tested on: pigweed (Amaranthus retroflexus); test: Test A postemergence; conditions: Amaranthus retroflexus, post-emergence, 240 h, read-out: Pigweed plant response rating (0 to 100 scale)
In short: as §1

[14] = tested on: ragweed (common ragweed, Ambrosia elatior); test: Test A postemergence; conditions: Ambrosia artemisiifolia, post-emergence, 240 h, read-out: Ragweed plant response rating (0 to 100 scale)
In short: as §1

[15] = tested on: ryegrass, Italian (Italian ryegrass, Lolium multiflorum); test: Test A postemergence; conditions: Lolium multiflorum, post-emergence, 240 h, read-out: Ryegrass, Italian plant response rating (0 to 100 scale)
In short: as §1

[16] = tested on: wheat (Triticum aestivum); test: Test A postemergence; conditions: Triticum aestivum, post-emergence, 240 h, read-out: Wheat plant response rating (0 to 100 scale)
In short: as §1

[17] = tested on: barnyardgrass (Echinochloa crus-galli); test: Test B flooded paddy test; conditions: Echinochloa crus-galli, 250 g ai/ha, Flood; 0 to 100 scale where 0 is no effect and 100 is complete control; read-out: Barnyardgrass plant response rating
In short: (§2)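 Plants at 2-leaf stage flooded to 3 cm above soil, with compounds applied directly to paddy water and that depth maintained. Plants kept in greenhouse 13–15 d. Visual rating versus controls on a 0 (no effect) to 100 (complete control) scale.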

[18] = tested on: ducksalad (Heteranthera limosa); test: Test B flooded paddy test; conditions: Heteranthera limosa, 250 g ai/ha, Flood; 0 to 100 scale where 0 is no effect and 100 is complete control; read-out: Ducksalad plant response rating
In short: as §2

[19] = tested on: rice (Oryra sativa); test: Test B flooded paddy test; conditions: Oryza sativa, 250 g ai/ha, Flood; 0 to 100 scale where 0 is no effect and 100 is complete control; read-out: Rice plant response rating
In short: as §2

[20] = tested on: sedge, umbrella (small-flower umbrella sedge, Cyperus difformis); test: Test B flooded paddy test; conditions: Cyperus difformis, 250 g ai/ha, Flood; 0 to 100 scale where 0 is no effect and 100 is complete control; read-out: Sedge, Umbrella plant response rating
In short: as §2

[21] = 125 g ai/ha, preemergence, visual injury rating, approximately 10 d
[22] = 125 g ai/ha, postemergence, visual injury vs untreated controls after approx. 10 d, 0 = no effect, 100 = complete control
[23] = Postemergence, 31 g ai/ha, 0 is no effect, 100 is complete control

Cc1ccc([C@H]2CN(C)C(=O)[C@@H]2C(=O)Nc2cccc(F)c2C#N)cc1 [Compound 1189]
70%: pest or weed control at 125 g/ha [1, 21] | pest or weed control at 31 g/ha [9, 23] | pest or weed control at 31 g/ha [12, 23]
20%: pest or weed control at 31 g/ha ([6]; 31 g ai/ha, Preemergence) | pest or weed control at 125 g/ha [8, 22] | pest or weed control at 31 g/ha [10, 23] | plant injury at 125 g/ha [11, 22] | pest or weed control at 125 g/ha [15, 22] | plant injury at 125 g/ha [16, 22]
50%: pest or weed control at 125 g/ha [5, 21] | pest or weed control at 125 g/ha [7, 22]
75%: pest or weed control at 250 g/ha [17]
90%: pest or weed control at 31 g/ha ([2]; 31 g ai/ha, Preemergence) | pest or weed control at 31 g/ha ([3]; 31 g ai/ha, Preemergence)
40%: pest or weed control at 31 g/ha ([1]; 31 g ai/ha, Preemergence) | pest or weed control at 125 g/ha [4, 21] | pest or weed control at 125 g/ha [10, 22] | pest or weed control at 125 g/ha [14, 22]
80%: pest or weed control at 125 g/ha [12, 22]
15%: pest or weed control at 250 g/ha [19]
0%: pest or weed control at 31 g/ha ([4]; 31 g ai/ha, Preemergence) | pest or weed control at 31 g/ha ([5]; 31 g ai/ha, Preemergence) | pest or weed control at 31 g/ha [8, 23] | plant injury at 31 g/ha [11, 23] | pest or weed control at 125 g/ha [13, 22] | pest or weed control at 31 g/ha [13, 23] | pest or weed control at 31 g/ha [14, 23] | pest or weed control at 31 g/ha [15, 23] | plant injury at 31 g/ha [16, 23] | pest or weed control at 250 g/ha [20]
30%: pest or weed control at 31 g/ha [7, 23]
60%: pest or weed control at 125 g/ha [6, 21]
100%: pest or weed control at 125 g/ha [2, 21] | pest or weed control at 125 g/ha [3, 21] | pest or weed control at 125 g/ha [9, 22] | pest or weed control at 250 g/ha [18]
